We go through eight compounds from PubChem BioAssay (NCI).

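Each compound was tested at five concentrations against cells in 96-well plates for 48 hours. GI50 is the concentration that inhibits growth by half. The concentration for full growth arrest is given as TGI.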

Common to all, as to experiment: NCI tumour cell line growth inhibition, 48 h
Experiment [1] relates to HCC-2998 colon.
Experiment [2] concerns SF-268 CNS.
Experiment [3] deals with NCI-H23 lung.
Experiment [4] concerns SF-295 CNS.
Experiment [5] has as its system 786-0 renal.
Experiment [6] has as its system SK-MEL-28 melanoma.
Experiment [7] has as its system UACC-257 melanoma.
For experiment [8], the system named is HCT-15 colon.
For experiment [9], the system named is K-562 leukemia.
Experiment [10] deals with KM12 colon.

Take `O=C(O)c1cn(C2CC2)c2cc(N3CCN(C(=O)Nc4nc(-c5ccccc5)cs4)CC3)c(F)cc2c1=O`: the GI50 in experiment [1] was 2240 nM; in experiment [2] it was 474 nM; in experiment [3] it was 654 nM; in experiment [4] it was 2130 nM; in experiment [5] it was 592 nM; in experiment [6], 705 nM. Also, the GI50 is 2370 nM in [7], 2270 nM in experiment [8], 2050 nM in experiment [9] and 485 nM in experiment [10]. The TGI in [1] is above 100000 nM; in experiment [2], above 100000 nM; in [3], 14000 nM; in experiment [4], 9240 nM; in experiment [5] it was 16900 nM; in experiment [6], above 100000 nM. The TGI in [7] is 7580 nM; in experiment [8], above 100000 nM; in experiment [9] it was above 100000 nM; in [10], 23700 nM.

As to `COc1ccc(/C=c2\sc3n(c2=O)C2C(NN=3)N(C)C(=O)N2C)cc1` (stereo not given), the GI50 in experiment [1] is 1500 nM; in [2], above 100000 nM; in experiment [3] it was 1750 nM; in experiment [4] it was 917 nM; in experiment [5], 492 nM; in experiment [6] it was 2270 nM. The GI50 in experiment [7] was above 100000 nM; in experiment [8], 428 nM; in experiment [9] it was 331 nM; in experiment [10], 588 nM. For the same compound, the TGI in experiment [1] is above 100000 nM; in experiment [2] it was above 100000 nM; in experiment [3] it was above 100000 nM; in [4], above 24500 nM; in experiment [5], above 100000 nM; in experiment [6], above 100000 nM. Besides, the TGI in experiment [7], in experiment [8], in experiment [9] and in [10] was above 100000 nM in each case.

Consider `COC(=O)CCC1CCc2c(OC)ccc(OC)c2C1=O` (stereo not given), for which the TGI in [1], in experiment [2], in experiment [3], in experiment [4], in [5] and in experiment [6] was above 100000 nM throughout. The TGI in experiment [7], in experiment [8], in experiment [9] and in experiment [10] was above 100000 nM throughout.

With `O=C(CC1(O)C(=O)Nc2ccc(Br)cc21)c1ccc(Cl)cc1Cl` (stereo not given), the TGI in experiment [1], in [2], in experiment [3], in [4], in [5] and in experiment [6] was above 100000 nM throughout. Besides, the TGI in experiment [7], in experiment [8], in [9] and in experiment [10] was above 100000 nM each time.

For `Cc1ccc(C(NC(=O)c2ccccc2)c2ccc3cccnc3c2O)cc1` (stereo not given), the GI50 in [1] was 331 nM; in experiment [2], 266 nM; in experiment [3], 417 nM; in experiment [4], 351 nM; in [5], 301 nM; in [6], 492 nM. Moreover, the GI50 in [7] was 293 nM; in experiment [8], 240 nM; in experiment [9], 349 nM; in experiment [10], 380 nM. For the same compound, the TGI in experiment [1] was 18500 nM; in experiment [2], above 48400 nM; in [3] it was above 32500 nM; in [4] it was 14700 nM; in [5] it was 1810 nM; in experiment [6], 41600 nM. Moreover, the TGI in [7] was 2580 nM; in [8] it was above 91200 nM; in experiment [9], 90000 nM; in experiment [10], above 43700 nM.

For `COc1cc2c(cc1OC)C(Sc1ccc(SC)cc1)c1c(nc(N)c(C#N)c1N)O2` (stereo not given), the GI50 in experiment [1] is 1800 nM; in [2] it was 1600 nM; in experiment [3], 1780 nM; in [4], 1630 nM; in [5], 1530 nM; in experiment [6], 1720 nM. Besides, the GI50 in experiment [7] is 2070 nM; in [8], 1440 nM; in [9], 1740 nM; in experiment [10], 1810 nM. The TGI in experiment [1] stood at 3280 nM; in experiment [2], 3100 nM; in experiment [3] it was 3550 nM; in [4], 3010 nM; in experiment [5], 2850 nM; in [6], 3220 nM. The TGI in experiment [7] came out at 3510 nM; in [8] it was 2910 nM; in experiment [9], 5590 nM; in experiment [10], 3460 nM.

Consider `O=[N+]([O-])c1ccc(Oc2nc(Nc3ccc(O[C@H]4CO[C@H]5[C@@H]4OC[C@@H]5O)c(Cl)c3)ncc2F)c(Cl)c1`, for which the GI50 in experiment [1] was 2120 nM; in experiment [2], 1560 nM; in [3] it was 1300 nM; in experiment [4], 1390 nM; in experiment [5] it was 1300 nM; in [6], 1550 nM. In addition, the GI50 in experiment [7] is 1780 nM; in experiment [8] it was 2370 nM; in experiment [9], 1310 nM; in experiment [10], 410 nM. For the same compound, the TGI in experiment [1] was 7070 nM; in experiment [2], 6920 nM; in experiment [3], 3220 nM; in [4], 2920 nM; in experiment [5], 4240 nM; in experiment [6], 4780 nM. Besides, the TGI in experiment [7] is 4270 nM; in experiment [8], 10700 nM; in experiment [9], 13300 nM; in experiment [10], 2220 nM.

For the compound `CCN1C(=O)CCCc2c1ccc(Nc1ncc(Cl)c(NC3[C@@H](C(N)=O)[C@@H]4C=C[C@H]3C4)n1)c2OC` (stereo not given in full), the GI50 in experiment [1] was 1690 nM; in experiment [2] it was 2010 nM; in experiment [3] it was 1560 nM; in [4], 1450 nM; in experiment [5], 1870 nM; in experiment [6], 1560 nM. The GI50 was 839 nM in experiment [7], 563 nM in experiment [8], 2160 nM in experiment [9] and 1870 nM in experiment [10]. The TGI in experiment [1] is 3570 nM; in experiment [2] it was 14300 nM; in experiment [3], 9470 nM; in experiment [4], 13300 nM; in experiment [5], 9120 nM; in [6] it was 6960 nM. Moreover, the TGI is 4340 nM in experiment [7], above 20500 nM in experiment [8], above 74600 nM in experiment [9] and 13900 nM in experiment [10].
